For assay [1], the target named is Prostaglandin G/H synthase 1 (Homo sapiens) (UniProt P23219). Description: Percent inhibition of arachidonic acid induced TXB2 generation in isolated human platelets (Prostaglandin G/H synthase 1 cell assay) at 10 uM. The class given is functional.
The target is the same in assay [2]. Description: Percent inhibition of arachidonic acid induced TXB2 generation in isolated human platelets (Prostaglandin G/H synthase 1 cell assay) at 10 uM. Format: functional.
For assay [3] the target is unchanged. The note with it: 100 uM.
The target of assay [4] is T1, Prostaglandin G/H synthase 2 (Homo sapiens) (UniProt P35354).
T1 sequence (whole entry): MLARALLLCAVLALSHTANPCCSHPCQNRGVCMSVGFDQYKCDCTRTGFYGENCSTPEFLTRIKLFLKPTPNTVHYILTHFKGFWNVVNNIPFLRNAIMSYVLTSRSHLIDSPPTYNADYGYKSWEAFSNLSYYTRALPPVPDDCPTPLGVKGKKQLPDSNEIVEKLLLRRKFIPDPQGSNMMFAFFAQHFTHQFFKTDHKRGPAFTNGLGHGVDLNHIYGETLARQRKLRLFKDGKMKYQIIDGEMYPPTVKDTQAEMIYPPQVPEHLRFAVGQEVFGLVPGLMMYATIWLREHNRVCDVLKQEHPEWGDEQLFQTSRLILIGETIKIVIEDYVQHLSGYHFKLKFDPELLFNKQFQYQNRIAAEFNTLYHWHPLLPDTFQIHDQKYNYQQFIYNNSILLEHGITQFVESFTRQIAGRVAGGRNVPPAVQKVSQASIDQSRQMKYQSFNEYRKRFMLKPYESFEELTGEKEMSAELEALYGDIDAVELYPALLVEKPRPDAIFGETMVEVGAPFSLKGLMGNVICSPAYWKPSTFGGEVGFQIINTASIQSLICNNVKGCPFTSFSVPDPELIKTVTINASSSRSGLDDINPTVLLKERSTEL
Description: % Inhibition of Prostaglandin G/H synthase 2 activity was evaluated at 10 uM concentration, in human whole blood as LPS-induced PGE-2 generation. The class given is functional, tissue-based.

The target in assay [5] is T2, Prostaglandin G/H synthase 2 (Homo sapiens, UniProt P35354).
T2 sequence (P35354 whole entry): T1 sequence (whole entry)
Briefly: Inhibition of PGE-2 generation in LPS-stimulated human monocytes (Prostaglandin G/H synthase 2 assay).

SMILES strings stand for the structures.

Sequence of Prostaglandin G/H synthase 1 (Homo sapiens) (P23219 whole entry): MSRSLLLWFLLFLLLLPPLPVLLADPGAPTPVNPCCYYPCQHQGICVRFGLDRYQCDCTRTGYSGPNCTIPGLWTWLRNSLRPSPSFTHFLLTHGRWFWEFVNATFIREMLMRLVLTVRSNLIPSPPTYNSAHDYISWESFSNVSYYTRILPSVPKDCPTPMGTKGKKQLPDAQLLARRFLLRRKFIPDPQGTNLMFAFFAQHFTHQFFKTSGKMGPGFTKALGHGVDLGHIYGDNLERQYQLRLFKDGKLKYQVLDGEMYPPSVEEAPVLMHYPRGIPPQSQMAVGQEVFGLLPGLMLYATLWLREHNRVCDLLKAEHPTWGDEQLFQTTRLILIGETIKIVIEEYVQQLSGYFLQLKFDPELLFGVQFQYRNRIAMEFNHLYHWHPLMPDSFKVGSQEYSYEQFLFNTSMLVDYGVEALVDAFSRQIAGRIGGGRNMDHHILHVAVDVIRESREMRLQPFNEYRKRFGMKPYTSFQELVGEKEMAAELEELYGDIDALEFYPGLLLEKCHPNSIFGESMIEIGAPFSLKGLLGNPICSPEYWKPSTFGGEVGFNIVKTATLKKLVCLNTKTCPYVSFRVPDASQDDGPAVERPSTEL

`COC(=O)c1cc2cc(S(C)(=O)=O)ccc2n1Cc1ccc([N+](=O)[O-])cc1` came in with an inhibition in assay [1] of 0%. The compound `COC(=O)c1cc2cc(S(C)(=O)=O)ccc2n1C(=O)c1ccc(Br)cc1` had an inhibition in assay [2] of 15%. In turn, `CS(=O)(=O)c1ccc2c(c1)cc(C(=O)O)n2Cc1ccc(Cl)cc1` gave an inhibition in assay [1] of 37%. As for `COC(=O)c1cc2cc(S(C)(=O)=O)ccc2n1Cc1ccc(Cl)cc1`, the inhibition in assay [3] amounted to 25%; in assay [1] it was 19%. `COC(=O)c1cc2cc(S(C)(=O)=O)ccc2n1C(=O)c1ccc(Cl)cc1`: the values for the inhibition in assay [4] and in assay [2] were under 25% and 16%, respectively. In assay [5], the IC50 came to 730 nM. On to `COC(=O)c1cc2cc(S(C)(=O)=O)ccc2n1Cc1ccc(OC)cc1`, for which the values for the inhibition in assay [3] and in assay [1] were 54% and 15%, respectively.

`COC(=O)c1cc2cc(S(C)(=O)=O)ccc2n1Cc1ccc(Br)cc1`: the inhibition in assay [1] worked out at 25%.

These data come from ChEMBL document CHEMBL1136052, “Identification of novel cyclooxygenase-2 selective inhibitors using pharmacophore models” (J Med Chem, 2002).
